Experimental findings from patent US20070021509A1, “Phosphate transport inhibitors” (priority 2001, published 2007) are described below.

The first assay relates to phosphate uptake by rabbit intestinal Brush Border Membrane Vesicles (BBMV). As to the kind of experiment: 33PO4 uptake in rabbit intestinal BBMV (HTS), phosphate transporter inhibition in vitro. To be noted: Table 1, phosphate uptake, read-out: IC50. In kind it is biochemical. A digest of the protocol:
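BBMV from duodenal mucosa of male New Zealand White rabbits, diluted to about 0.5-2.0 mg/mL protein. Uptake buffers carried 33PO4 at 200,000 CPM/19 μL. Controls: Na uptake buffer (max), plus 100 μM KH2PO4 pH 7.4 (mid), K uptake buffer (min).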
Take `O=C(O)c1cc(Br)ccc1NS(=O)(=O)c1ccccc1[N+](=O)[O-]` [Compound 38]: the IC50 (usually the midpoint of a concentration-inhibition curve) fell in the range of 1000 to 1500 µM. On to `O=C(O)c1cc(Br)ccc1NS(=O)(=O)c1ccc(Cl)cc1` [Compound 29], for which the IC50 lay in the range of 101 to 500 µM.

Turning to `O=C(O)c1cc(Br)ccc1NS(=O)(=O)c1ccc(Cl)cc1` [Compound 46], the IC50 was over 1500 µM. Still for that read-out and setting: the value for `O=C(O)c1cc(Br)ccc1NS(=O)(=O)c1ccc(Br)cc1` [Compound 18] was 101 to 500 µM. Still for that read-out and setting: in the case of `O=C(O)c1cc(Br)ccc1NS(=O)(=O)c1cccc(Cl)c1` [Compound 10] it was 101 to 500 µM.

On to `CCCCCc1ccc(S(=O)(=O)Nc2ccc(Br)cc2C(=O)O)cc1` [Compound 28], for which the IC50 lay within 101 to 500 µM.

As for `Cc1cc(C)c(S(=O)(=O)Nc2ccc(Br)cc2C(=O)O)c(C)c1` [Compound 6], the IC50 is 51 to 100 µM.

Staying with this assay, now noted: Table 2, phosphate uptake, read-out: IC50.
Regarding `COc1ccc(S(=O)(=O)Nc2ccc(Br)cc2C(=O)Nc2ccccc2Br)cc1[N+](=O)[O-]` [Compound 105], the IC50 lay in the range of 51 to 100 µM.

On to `Cc1c(Cl)cccc1NC(=O)c1cc(Br)ccc1NS(=O)(=O)c1ccc(Cl)cc1` [Compound 93], for which the IC50 was over 1500 µM. On the same count and under the same terms, the value for `COc1ccc(S(=O)(=O)Nc2ccc(Br)cc2C(=O)Nc2ccccc2Cl)cc1[N+](=O)[O-]` [Compound 99] was 51 to 100 µM; that for `O=C(Nc1cc(Cl)ccc1Cl)c1cc(Br)ccc1NS(=O)(=O)c1ccc(Cl)c([N+](=O)[O-])c1` [Compound 115] was 51 to 100 µM. Still for that read-out and setting: the value for `O=C(Nc1ccc(Cl)cc1Cl)c1cc(Br)ccc1NS(=O)(=O)c1ccc(Cl)cc1` [Compound 85] was 51 to 100 µM; that for `CC(C)(C)c1ccc(NC(=O)c2cc(Br)ccc2NS(=O)(=O)c2ccc(OC(F)(F)F)cc2)cc1` [Compound 71] was 101 to 500 µM. On the same count and under the same terms, the value for `COc1ccc(CNC(=O)c2cc(Br)ccc2NS(=O)(=O)c2ccc(OC(F)(F)F)cc2)cc1` [Compound 77] was 101 to 500 µM. Turning to `O=C(Nc1ccc(Cl)cc1)c1cc(Br)ccc1NS(=O)(=O)c1ccc(Cl)cc1` [Compound 97], the concentration for half-maximal inhibition (IC50) was over 1500 µM. Same read-out and setting: in the case of `O=C(Nc1ccccc1-n1cccc1)c1cc(Br)ccc1NS(=O)(=O)c1ccc(OC(F)(F)F)cc1` [Compound 68] it was 101 to 500 µM; in that of `COc1ccc(S(=O)(=O)Nc2ccc(Br)cc2C(=O)Nc2cc(Cl)ccc2Cl)cc1[N+](=O)[O-]` [Compound 98], 51 to 100 µM; in that of `O=C(NC1CCCCC1)c1cc(Br)ccc1NS(=O)(=O)c1ccc(OC(F)(F)F)cc1` [Compound 75], 101 to 500 µM. Same read-out and setting: the value for `Cc1ccc(CNC(=O)c2cc(Br)ccc2NS(=O)(=O)c2ccc(OC(F)(F)F)cc2)cc1` [Compound 82] was 501 to 1000 µM.

The same assay, now with this note: Table 3, 100 μM compound.
Turning to `O=S(=O)(Nc1cccc(Cl)c1)c1ccc(OC(F)(F)F)cc1` [Compound 132], the “% Inhib. At 100 μM” value is on record as 79%. On the same count and under the same terms, the value for `O=S(=O)(Nc1ccc(F)cc1F)c1cc(C(F)(F)F)cc(C(F)(F)F)c1` [Compound 162] was 29%. Still for that read-out and setting: the value for `O=S(=O)(Nc1c(F)cc(Br)cc1F)c1ccc(OC(F)(F)F)cc1` [Compound 151] was 54%. The same measure, in the same setting: in the case of `O=S(=O)(NCc1ccccc1Cl)c1ccc(OC(F)(F)F)cc1` [Compound 133] it was 77%; in that of `COc1cc([N+](=O)[O-])ccc1NC(=O)c1cc(Br)ccc1NS(=O)(=O)c1ccc(OC(F)(F)F)cc1` [Compound 170], 103%; in that of `O=C(Nc1ccc(Br)cc1C(F)(F)F)c1cc(Br)ccc1NS(=O)(=O)c1ccc(OC(F)(F)F)cc1` [Compound 169], 106%. As to `O=[N+]([O-])c1ccc(NS(=O)(=O)c2ccc(OC(F)(F)F)cc2)cc1` [Compound 156], the “% Inhib. At 100 μM” value stood at 46%.

As to `CCOC(=O)c1cc2cccc(NS(=O)(=O)c3ccc(OC(F)(F)F)cc3)c2[nH]1` [Compound 137], the “% Inhib. At 100 μM” value is on record as 74%. The same measure, in the same setting: the value for `COc1ccc2c(c1)C(=O)CCN2S(=O)(=O)c1ccc(C)cc1` [Compound 165] was 25%; that for `O=[N+]([O-])c1cc(Br)ccc1N(c1ccc(OC(F)(F)F)cc1)S(=O)(=O)c1ccc(OC(F)(F)F)cc1` [Compound 160] was 34%.

The assay is the same for the next values; noted with them: Table 4, phosphate uptake, read-out: IC50.
Turning to `O=C(Nc1ccc(Cl)c(Cl)c1)Nc1ccc(Br)cc1P(=O)(O)O` [Compound 179], the IC50 was under 50 µM. Same read-out and setting: in the case of `O=C(Nc1ccc(C(F)(F)F)cc1)Nc1ccc(Br)cc1P(=O)(O)O` [Compound 202] it was 501 to 1000 µM; in that of `O=C(Nc1cccc(Br)c1)Nc1ccc(Br)cc1P(=O)(O)O` [Compound 211], over 1500 µM.

Still in this assay, the particulars now being: Table 5, 100 μM compound.
For the compound `O=C(Nc1ccc(Cl)cc1)Nc1cccc(C(F)(F)F)c1` [Compound 228], the “% Inhib. at 100 μM” value is reported as 74%. The same measure, in the same setting: in the case of `O=C(Nc1cccc(C(F)(F)F)c1)Nc1c(Cl)cccc1Cl` [Compound 218] it was 93%; in that of `O=C(Nc1cccc(C(F)(F)F)c1)Nc1cc(Cl)ccc1Cl` [Compound 220], 92%.

Still in this assay, the particulars now being: Table 6, 100 μM compound.
For the compound `Oc1ccc(C2=NOC(c3ccc(F)cc3)C2)cc1` (stereo not shown) [Compound 234], the “% Inhib. at 100 μM” value came out at 62%.

The same assay, now with this note: Table 7, phosphate uptake, read-out: IC50.
Take `Cn1nc(-c2ccc(O)cc2)cc1-c1ccco1` [Compound 242]: the half-maximal inhibitory concentration (IC50) is over 1500 µM. The same measure, in the same setting: the value for `COc1ccc(-c2cc(-c3cccc(F)c3)n(C)n2)cc1` [Compound 239] was 101 to 500 µM.

The same assay, now with this note: Table 9, 100 μM compound.
In the case of `O=C(/C=C/c1ccc(Br)cc1)c1cc(Cl)cc(Cl)c1O` [Compound 249], the “% Inhib. at 100 μM” value is 50%.

Staying with this assay, now noted: Table 10, phosphate uptake, read-out: IC50.
Take `CCOP(=O)(OCC)c1cc(Br)ccc1NC(=O)c1cc(C(F)(F)F)ccc1C(F)(F)F` [Compound 264]: the IC50 was in the range of 101 to 500 µM. Same read-out and setting: in the case of `O=C(Nc1ccc(Br)cc1C(=O)O)c1ccc(Cl)c([N+](=O)[O-])c1` [Compound 261] it was 101 to 500 µM.

Regarding `O=C(Nc1ccc(Br)cc1)c1cc(Br)cc(Br)c1` [Compound 266], the IC50 is 501 to 1000 µM. Still for that read-out and setting: in the case of `O=C(Nc1ccccc1)c1ccccc1P(=O)(O)O` [Compound 269] it was over 1500 µM.

The assay is the same for the next values; noted with them: Table 11, phosphate uptake, read-out: IC50.
Regarding `COc1cccc(C(=O)/C=C/c2ccco2)c1` [Compound 275], the IC50 is 501 to 1000 µM. On the same count and under the same terms, in the case of `O=C(/C=C/c1ccco1)c1cccc(O)c1` [Compound 274] it was 501 to 1000 µM; in that of `COc1cccc(C(=O)/C=C/c2cccc(F)c2)c1` [Compound 278], over 1500 µM.

Staying with this assay, now noted: Table 12, 100 μM compound.
In the case of `O=S(=O)(Cc1ccc(Cl)cc1Cl)c1cc(C(F)(F)F)cc(C(F)(F)F)c1` [Compound 280], the “% Inhib. at 100 μM” value came to 57%.

The same assay, now with this note: Table 13, phosphate uptake, read-out: IC50.
Consider `O=S(=O)(O)c1cc(NS(=O)(=O)c2ccc(-c3ccccc3)cc2)ccc1/C=C/c1ccc(NS(=O)(=O)c2ccc(-c3ccccc3)cc2)cc1S(=O)(=O)O` [Compound 293], for which the half-maximal inhibitory concentration (IC50) is 51 to 100 µM. The same measure, in the same setting: in the case of `O=S(=O)(O)c1cc(NS(=O)(=O)c2ccc(-c3ccccc3)cc2)ccc1/C=C/c1ccc(NS(=O)(=O)c2ccc(-c3ccccc3)cc2)cc1S(=O)(=O)O` [Compound 298] it was 501 to 1000 µM. Same read-out and setting: in the case of `O=S(=O)(O)c1cc(NS(=O)(=O)c2cccc(Cl)c2)ccc1/C=C/c1ccc(NS(=O)(=O)c2cccc(Cl)c2)cc1S(=O)(=O)O` [Compound 301] it was 501 to 1000 µM; in that of `O=C(Nc1ccc(/C=C/c2ccc(NC(=O)c3ccccc3)cc2S(=O)(=O)O)c(S(=O)(=O)O)c1)c1ccccc1` [Compound 300], 501 to 1000 µM; in that of `O=S(=O)(O)c1cc(NS(=O)(=O)c2cccc3cccnc23)ccc1/C=C/c1ccc(NS(=O)(=O)c2cccc3cccnc23)cc1S(=O)(=O)O` [Compound 311], over 1500 µM.
